Assay results: US20180243190A1, “ACTIVATORS OF NRF2-DEPENDENT PHOTOPROTECTION AND RELATED USES THEREOF” (THE ARIZONA BOARD OF REGENTS ON BEHALF OF THE UNIVERSITY OF …, priority 2015, published 2018)

How the values were obtained:
NRF2 = assay: Cell-based NRF2 ubiquitination assay; design: species or system human; conditions: HaCaT, bixin 40 μM or SF 5 μM with MG132 10 μM, 4 h
Procedure: In order to test if bixin-based NRF2 activation occurs through inhibition of KEAP1-mediated ubiquitination, a cell-based ubiquitination assay was performed in HaCaT cells cotransfected with expression vectors for NRF2 and HA-tagged ubiquitin (HA-Ub) (FIG. 3F). To this end, cells were either exposed to bixin (40 μM) or sulforaphane (SF; 5 μM, positive control) or left untreated, combined with proteasome inhibition (MG132; 10 μM, 4 h).
Experiments were performed according to previously published procedures. Cells were harvested in sample buffer (50 mM Tris-HCl [pH 6.8], 2% sodium dodecyl sulfate (SDS), 10% glycerol, 100 mM dithiothreitol (DTT), and 0.1% bromophenol blue), boiled and sonicated. Total cell lysates were resolved by SDS-PAGE and subjected to immunoblot analyses with the indicated antibodies. For the ubiquitination assay, cells were cotransfected with expression vectors for NRF2 and HA-tagged ubiquitin (HA-Ub). Cells were left untreated or treated with either 5 μM sulforaphane (SF) or 40 μM bixin along with 10 μM MG132 for 4 h. Cells were harvested in buffer containing 2% SDS, 150 mM NaCl, 10 mM Tris-HCl (pH 8.0), and 1 mM DTT and boiled immediately. […] The relative intensity of the bands was quantified using the ChemiDoc CRS gel documentation system and Quantity One software (BioRad).

KEAP1-C151S = biological target: T1, KEAP1-C151S (Homo sapiens, UniProt Q14145, C151S); type: cell-based; conditions: SF 5 μM, As 5 μM, bixin 40 μM; 16 h
T1 construct: expressed in transfected cells; host or cells: HaCaT human keratinocytes
Text: (§1) Since it has been shown previously that NRF2 activation by canonical inducers (including SF and tBHQ) depends on C (Cys)-151, a critical cysteine residue in KEAP1, the mechanistic involvement of KEAP1-C151 bixin-based NRF2 activation was examined. HaCaT cells were cotransfected with expression vectors for either KEAP1 wild type (KEAP1-WT) or a mutant KEAP1 (KEAP1-C151S; Cys-151 mutated to serine) along with ARE-firefly luciferase and Renilla luciferase reporters to assess NRF2 transcriptional activity (FIG. 3G). After exposure to SF (5 μM), As (sodium arsenite; 5 μM), or bixin (40 μM; all 16 h), NRF2 transcriptional activity was enhanced by all treatments in KEAP1-WT cells, whereas NRF2 activation by SF or bixin was abolished in KEAP1-C151S cells.
(§2) Transfection of cDNA was performed using Lipofectamine 3000 (Invitrogen) according to the manufacturer's instructions. Activation of NRF2 transcriptional activity was performed as previously published. Briefly, HaCaT cells were cotransfected with expression vectors for either KEAP1 wild type (KEAP1-WT) or KEAP1 with a mutation that generates a protein that contains a serine residue instead of a cysteine (KEAP1-C151S), along with NQO1-ARE firefly luciferase and Renilla luciferase reporters. At 24 h post-transfection, cells were left untreated or treated with SF (5 μM), As (5 μM), or bixin (40 μM) for 16 h. The cells were then lysed for analysis of the reporter gene activity using the Promega dual-luciferase reporter gene assay system.

[1] = biological target: T2, KEAP1 wild type (KEAP1-WT) (Homo sapiens, UniProt Q14145); type: cell-based; conditions: SF 5 μM, As 5 μM, bixin 40 μM; 16 h
T2 construct: expressed in transfected cells; host or cells: HaCaT human keratinocytes
Text: as §1, §2

HaCaT keratinocytes = test system: HaCaT keratinocytes; design: cytoprotection against 1O2-induced oxidative stress: dose or concentration left out as unconfirmed; conditions: HaCaT
Procedure: Photodynamic induction of intracellular oxidative stress and its suppression by bixin pretreatment was analyzed by flow cytometry using 2′,7′-dichlorodihydrofluorescein diacetate (DCFH-DA) as a sensitive non-fluorescent precursor dye according to a published standard procedure [14]. HaCaT keratinocytes were pretreated with bixin (1 or 24 h) and then exposed to singlet oxygen generated by dye-sensitization as described earlier [14, 44]. In brief, toluidine blue 0 (TB) photosensitization was achieved using a ‘Sylvania 15 W Cool White’ light tube delivering visible light at an irradiance of 4.29 mW/cm^2. The irradiance in the visible region (400-700 nm) was determined using a spectroradiometer, Model 754 from Optronic Laboratories (Orlando, Fla.). Cells received visible radiation at a distance of 50 mm from the source through the polystyrene lids of cell culture dishes. For ^1O2 exposure, cells were washed with PBS and immediately exposed to the combined action of visible light (0.3 J/cm^2) and TB (3.3 μM) in PBS. Following 5 min incubation in the dark after irradiation, cells were washed with PBS. Cells were then incubated for 60 min in the dark (37° C., 5% CO2) with culture medium containing DCFH-DA (5 μg/mL final concentration). Cells were then washed with PBS, harvested by trypsinization, resuspended in 300 μl PBS, and analyzed by flow cytometry.

T2 sequence (Q14145 whole entry, species assumed): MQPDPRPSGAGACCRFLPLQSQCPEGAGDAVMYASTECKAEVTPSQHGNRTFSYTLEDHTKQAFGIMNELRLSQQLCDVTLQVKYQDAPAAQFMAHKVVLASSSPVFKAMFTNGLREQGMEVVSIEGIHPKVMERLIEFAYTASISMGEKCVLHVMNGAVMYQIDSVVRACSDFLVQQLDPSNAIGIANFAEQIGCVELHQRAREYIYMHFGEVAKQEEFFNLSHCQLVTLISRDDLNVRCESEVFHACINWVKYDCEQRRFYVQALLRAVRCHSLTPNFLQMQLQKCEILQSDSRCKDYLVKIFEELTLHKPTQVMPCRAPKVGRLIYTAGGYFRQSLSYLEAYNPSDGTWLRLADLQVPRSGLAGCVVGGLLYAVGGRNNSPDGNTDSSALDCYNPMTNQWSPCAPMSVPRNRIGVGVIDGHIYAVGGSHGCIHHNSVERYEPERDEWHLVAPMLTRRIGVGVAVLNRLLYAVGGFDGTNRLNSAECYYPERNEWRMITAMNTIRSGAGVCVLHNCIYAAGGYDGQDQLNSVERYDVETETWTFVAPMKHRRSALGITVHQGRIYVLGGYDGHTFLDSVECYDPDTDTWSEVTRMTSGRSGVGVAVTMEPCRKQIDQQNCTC
T1 sequence (Q14145 whole entry C151S): as the sequence (Q14145 whole entry, species assumed) above, with C151S counted along it

C[S+]([O-])CCCCN=C=S (stereo not drawn) [SF, sulforaphane]
NRF2-ubiquitination versus untreated control (NRF2): inhibitory effects
NRF2 activation in KEAP1-C151S cells (KEAP1-C151S): abolished
NRF2 transcriptional activity in KEAP1-WT cells [1]: enhanced

[N-]=[N+]=[N-].[Na+] [NaN3, reference compound]
cytoprotection against 1O2-induced oxidative stress (HaCaT keratinocytes): active only if present during visible light-driven dye sensitization

O=[As]O [As, sodium arsenite]
NRF2 activation in KEAP1-C151S cells (KEAP1-C151S): equally effective
NRF2 transcriptional activity in KEAP1-WT cells [1]: enhanced
